# In patent US7977352B2, “Triazolopyridine compounds useful for the treatment of degenerative and inflammatory diseases” (Galapagos NV, priority 2006, dated 2011):
# Columns and labels:
# [1] = test system: MMP1 expression by activated SFs; experiment: MMP assay proof of principle: MMP1 produced by complex trigger activated SFs; assay type: cell-based; details: Homo sapiens, supernatant of THP-1 cells treated with TNF-a (50% diluted), 48 hrs, FIG. 3, read-out: IC50 value, reduction of MMP1 expression by SFs
# Procedure: A 384-well format ELISA for measurement of MMP1 is developed. Various primary antibodies are tested, as well as various ELISA protocols. The following protocol is developed and validated to measure MMP1 levels in SF supernatant in 384 well plates: white Lumitrac 600 384 well plates (Greiner) are coated with 2 μg/mL anti-MMP1 antibody MAB1346 (Chemicon). The antibody is diluted in buffer 40 (1.21 g Tris base (Sigma), 0.58 g NaCl (Calbiochem) and 5 mL 10% NaN3 (Sigma) in 1 L milliQ water and adjusted to pH 8.5). After overnight incubation at 4° C., plates are washed with PBS (80 g NaCl, 2 g KCl (Sigma), 11.5 g Na2HPO4.7H2O and 2 g KH2PO4 in 10 L milliQ; pH 7.4) and blocked with 100 μL/well Casein buffer (2% Casein (VWR International) in PBS). Next day, casein buffer is removed from ELISA plates and replaced by 50 μL/well EC buffer (4 g casein, 2.13 g Na2HPO4 (Sigma), 2 g bovine albumin (Sigma), 0.69 g NaH2PO4.H2O (Sigma), 0.5 g CHAPS (Roche), 23.3 g NaCl, 4 mL 0.5 M EDTA pH 8 (Invitrogen), 5 mL 10% NaN3 in 1 L milliQ and adjusted to pH 7.0). 0.25 mM DTT (Sigma) is added to the thawed sample plates. After removal of the EC buffer, 20 μL of sample is transferred to the ELISA plates. […] Readout is performed on the Luminoscan Ascent Luminometer (Labsystems) with an integration time of 200 msec or with an Envision reader (Perkin Elmer). […]
# [2] = test system: MMP1 expression by activated synovial fibroblasts (RASFs); experiment: MMP assay: MMP1 expression by RASFs triggered with TNF-α (MMP1 ELISA); assay type: cell-based; details: Fibroblast, 48 h, TNF-α trigger 10 ng/mL, semi-quantitative score, read-out: REDUCTION MMP1/TNFa
# Procedure: A 384-well format ELISA for measurement of MMP1 is developed. Various primary antibodies are tested, as well as various ELISA protocols. The following protocol is developed and validated to measure MMP1 levels in SF supernatant in 384 well plates: white Lumitrac 600 384 well plates (Greiner) are coated with 2 μg/mL anti-MMP1 antibody MAB1346 (Chemicon). The antibody is diluted in buffer 40 (1.21 g Tris base (Sigma), 0.58 g NaCl (Calbiochem) and 5 mL 10% NaN3 (Sigma) in 1 L milliQ water and adjusted to pH 8.5). After overnight incubation at 4° C., plates are washed with PBS (80 g NaCl, 2 g KCl (Sigma), 11.5 g Na2HPO4.7H2O and 2 g KH2PO4 in 10 L milliQ; pH 7.4) and blocked with 100 μL/well Casein buffer (2% Casein (VWR International) in PBS). Next day, casein buffer is removed from ELISA plates and replaced by 50 μL/well EC buffer (4 g casein, 2.13 g Na2HPO4 (Sigma), 2 g bovine albumin (Sigma), 0.69 g NaH2PO4.H2O (Sigma), 0.5 g CHAPS (Roche), 23.3 g NaCl, 4 mL 0.5 M EDTA pH 8 (Invitrogen), 5 mL 10% NaN3 in 1 L milliQ and adjusted to pH 7.0). 0.25 mM DTT (Sigma) is added to the thawed sample plates. After removal of the EC buffer, 20 μL of sample is transferred to the ELISA plates. After overnight incubation at 4° C. plates are washed twice with PBS and once with PBST (PBS with 0.05% Tween-20 (Sigma)) and incubated with 35 μL/well biotinylated anti-MMP1 antibody solution (R&D). This secondary antibody is diluted in buffer C (0.82 g NaH2PO4.H2O, 4.82 g Na2HPO4, 46.6 g NaCl, 20 g bovine albumin and 4 mL 0.5M EDTA pH 8 in 2 L milliQ and adjusted to pH 7.0) at a concentration of 5 μg/mL. After 2 h of incubation at RT, plates are washed as described above and incubated with 50 μL/well streptavidin-HRP conjugate (Biosource). Streptavidin-HRP conjugate is diluted in buffer C at a concentration of 0.25 μg/mL. After 45 min, plates are washed as described above and incubated for 5 min with 50 μL/well BM Chem ELISA Substrate (Roche). Readout is performed on the Luminoscan Ascent Luminometer (Labsystems) with an integration time of 200 msec or with an Envision reader (Perkin Elmer).
# SFs were acquired at passage 1 from a commercial supplier (Cell applications, Inc.). SFs are cultured in DMEM supplemented with 10% heat-inactivated FBS, 1× penicillin/streptomycin (Invitrogen) at 37° C., 10% CO2 until passage 6. Aliquots of the cells are frozen and cryopreserved in liquid nitrogen. Starting from a cryopreserved aliquot, cells are further expanded by sub-culturing cells at 1/3 ratio every week. Cells between passage 10 and 12 are routinely used in compound testing according to following protocol.
# Starting from the compound master stocks (all at 10 mM concentration in 100% DMSO) a 3-fold serial dilution is made in 96-well plates in 100% DMSO. Then, plates are further diluted 45-fold in M199 medium supplemented with 1% heat-inactivated FBS to obtain a intermediate work stock.
# At day 1, RASFs are seeded in 96 well plates (flat bottom, tissue culture treated, Greiner) at a density of 3000 cells/well in complete synovial growth medium (Cell Applications). Day 5, the medium is completely removed from the cells, and replaced by 81 μL of M199 medium supplemented with 1% heat-inactivated FBS followed by addition of 10 μL compound out of the intermediate work stock. After an incubation period of 90 minutes, which allows the compounds to equilibrate and enter the cells, cells are stimulated with either TNF-α or ‘complex trigger’. TNF-α trigger is added in a volume of […] to obtain final concentration of 10 ng/mL. For that, TNF-α stock (PeproTech) at 10 μg/mL was diluted to 100 ng/mL TNF-a in M199 medium supplemented with 1% FBS. ‘Complex trigger’ mix is added in a volume of 20 μL to obtain a final concentration of 12.5%. For that, ‘complex trigger’ mix, is diluted to 80% with M199 medium supplemented with 1% FBS. […]
# TAK1-TAB1 fusion protein = biological target: T1, TAK1-TAB1 fusion protein (Homo sapiens, UniProt O43318); experiment: In vitro TAK1 kinase assay; assay type: biochemical; details: casein substrate, [33P]-γ-ATP, 90 minutes at 30° C., semi-quantitative score, read-out: POTENCY TAK1 (MAP3K7)
# T1 construct: purchased Upstate 14-600
# T1 sequence (O43318 with tags, fused parts or gaps limits assumed): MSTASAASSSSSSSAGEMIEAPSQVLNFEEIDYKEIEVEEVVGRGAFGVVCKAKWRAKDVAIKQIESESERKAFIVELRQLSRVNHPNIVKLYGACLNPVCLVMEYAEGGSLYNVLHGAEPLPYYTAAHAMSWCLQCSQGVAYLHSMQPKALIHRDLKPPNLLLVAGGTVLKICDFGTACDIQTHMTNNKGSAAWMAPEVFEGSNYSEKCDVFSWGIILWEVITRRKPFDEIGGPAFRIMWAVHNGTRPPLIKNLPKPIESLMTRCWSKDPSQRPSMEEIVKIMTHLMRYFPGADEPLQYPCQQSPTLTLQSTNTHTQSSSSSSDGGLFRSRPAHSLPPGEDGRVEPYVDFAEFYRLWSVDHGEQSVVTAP
# Procedure: For assessing TAK1 inhibition, active TAK1-TAB1 fusion protein was used from Upstate (Cat. No, 14-600). Kinase reactions are set up in 96-well polypropylene plates in 25 μL containing 0.5 mU TAK1-TAB1 fusion protein, 5mM ATP, 0.01 μCi/μL [^33P]-γ-ATP, 0.1 mg/mL casein substrate in 1× reaction buffer containing 10 mM MOPS pH 7.0, 1 mM EDTA.
# Starting from the compound master stocks (all at 10 mM concentration in 100% DMSO) a 3-fold serial dilution is made in 96-well plates in 100% DMSO. Plates are further diluted […] in H2O containing 3.5% DMSO, to obtain an intermediate work stock with compounds at 5× the final assay concentration in 5% DMSO.
# 5 μL of the intermediate stock is transferred into V-bottom 96 well polypropylene plates and 11 μL of Enzyme mix is added. Enzyme mix is made by combining 5 μL 5× reaction buffer ([…] pH 7.0, 1 mM EDTA), 5 μL casein (Sigma) diluted in H20 to 0.5 mg/mL and 1 μL of TAK1-TAB1 fusion protein that was prediluted to 0.5 mU/μL in 1× enzyme dilution buffer (20 mM MOPS pH 7.0, 0.1 mM EDTA, 0.01% Brij-35, 5% glycerol, 1 mM DTT, 1 mg/ml BSA).
# The reactions are started by the addition of 9 μL of mixture containing ATP (20.83 uM) and [^33P]-γ-ATP (0.028 μCi/μL).
# The assay is stopped 90 minutes after incubation at 30° C. by the addition of 25 μL phosphoric acid (150 mM). The label incorporated into the casein substrate is separated from labeled unincorporated ATP by filtration onto 96-well filter plates using a harvester device. After 6 washes with 75 mM phosphoric acid, the bottom of the filter plates are sealed, and incorporated label is quantified after addition of 40 μL scintillation fluid using TopCount.
IC50 [1],IC50 (TAK1-TAB1 fusion protein),Compound,IC50 [2]
~0.001 µM,–,C[C@@H]1C[C@H]2[C@@H]3CCC4=CC(=O)C=C[C@]4(C)[C@@]3(F)[C@@H](O)C[C@]2(C)[C@@]1(O)C(=O)CO [dexamethasone],–
–,> 10 µM,"COc1cc(-c2ccc(Nc3ccc(N4CCN(C5CCC5)CC4)cc3)c3ncnn23)ccn1 [Example 31, N-[4-(4-cyclobutylpiperazin-1-yl)phenyl]-5-(2-methoxypyridin-4-yl)[1,2,4]triazolo[1,5-a]pyridin-8-amine]",5 to 10 µM
–,< 0.5 µM,"O=c1cc(-c2ccc(Nc3ccc(N4CCN(C5CCCCC5)CC4)cc3)c3ncnn23)cc[nH]1 [Example 25, 4-(8-{[4-(4-cyclohexylpiperazin-1-yl)phenyl]amino}[1,2,4]triazolo[1,5-a]pyridin-5-yl)pyridin-2(1H)-one]",1 to 5 µM
–,< 0.5 µM,"NC(=O)c1ccc(-c2ccc(Nc3ccc(N4CCN(C5CCC5)CC4)cc3)c3ncnn23)cc1 [Example 16, 4-(8-{[4-(4-cyclobutylpiperazin-1-yl)phenyl]amino}[1,2,4]triazolo[1,5-a]pyridin-5-yl)benzamide]",5 to 10 µM
–,> 10 µM,"COc1ncc(-c2ccc(Nc3ccc(N4CCOCC4)cc3)c3ncnn23)c(OC)n1 [Example 54, 5-(2,4-dimethoxypyrimidin-5-yl)-N-(4-morpholin-4-ylphenyl)[1,2,4]triazolo[1,5-a]pyridin-8-amine]",> 10 µM
–,< 0.5 µM,"O=c1cc(-c2ccc(Nc3ccc(N4CCN(C5CCC5)CC4)cc3)c3ncnn23)cc[nH]1 [Example 24, 4-(8-{[4-(4-cyclobutylpiperazin-1-yl)phenyl]amino}[1,2,4]triazolo[1,5-a]pyridin-5-yl)pyridin-2(1H)-one]",1 to 5 µM
–,> 10 µM,"CCCN1CCN(c2ccc(Nc3ccc(-c4ccnc(OC)c4)n4ncnc34)cc2)CC1 [Example 27, 5-(2-methoxypyridin-4-yl)-N-[4-(4-propylpiperazin-1-yl)phenyl][1,2,4]triazolo[1,5-a]pyridin-8-amine]",1 to 5 µM
–,> 10 µM,"c1nc2c(Nc3ccc(N4CCOCC4)cc3)ccc(-c3ccc4[nH]ccc4c3)n2n1 [Example 50, 5-(1H-indol-5-yl)-N-(4-morpholin-4-ylphenyl)[1,2,4]triazolo[1,5-a]pyridin-8-amine]",1 to 5 µM
–,1 to 5 µM,"CC(C)N1CCN(c2ccc(Nc3ccc(-c4cccc5[nH]ccc45)n4ncnc34)cc2)CC1 [Example 49, 5-(1H-indol-4-yl)-N-[4-(4-isopropylpiperazin-1-yl)phenyl][1,2,4]triazolo[1,5-a]pyridin-8-amine]",> 10 µM
–,< 0.5 µM,"CCC(CC)N1CCN(c2ccc(Nc3ccc(-c4cc[nH]c(=O)c4)n4ncnc34)cc2)CC1 [Example 21, 4-[8-({4-[4-(1-ethylpropyl)piperazin-1-yl]phenyl}amino)[1,2,4]triazolo[1,5-a]pyridin-5-yl]pyridin-2(1H)-one]",> 10 µM
–,< 0.5 µM,"CCC(CC)N1CCN(c2ccc(Nc3ccc(-c4ccc(C(N)=O)cc4)n4ncnc34)cc2)CC1 [Example 14, 4-[8-({4-[4-(1-ethylpropyl)piperazin-1-yl]phenyl}amino)[1,2,4]triazolo[1,5-a]pyridin-5-yl]benzamide]",> 10 µM
